These results are taken from EP0104611A2, “Thiatriazine derivatives” (HOECHST UK LIMITED, priority 1982, dated 1984).

Molecules are shown by their SMILES.

The test system of the assay is perfused rat stomach. In words: antisecretory activity in the perfused rat stomach (inhibition of histamine- or pentagastrin-stimulated acid secretion). It counts as in vivo. The conditions noted are these: iv, amount required to inhibit the histamine- or pentagastrin-stimulated secretion by 50 %, two to four rats per determination, read-out: ID50 (μmoles/kg) Rat perfused stomach i.v. The method, then: Compounds of this invention were tested for […]- tory activity in the perfused rat stomach. The method of Gosh and Schild, Brit. […] After the secretion plateau was reached, the test compound was administered i.v. and the amount of comound required to inhibit the stimulated secretion by 50 % was determined. Two to four rats were used for each determination. [drawing 17]
`CN(C)C1=NS(=O)(=O)N=C(NCCSCc2csc(N=C(N)N)n2)N1C` [-N(CH3)2]: the ED50 worked out at 0.095 µmol/kg.
For `CN1C(N)=NS(=O)(=O)N=C1NCCSCc1csc(N=C(N)N)n1` [-NH2, 3-N-[2-[(2-Guanidino-4-thiazolyl)methylthio]-ethyl]-amino-4-methyl-5-amino-1,2,4,6-thiatriazine-1,1-dioxide], the ED50 turned out to be 0.15 µmol/kg.
The figure for `CC(C)NC1=NS(=O)(=O)N=C(NCCSCc2csc(N=C(N)N)n2)N1C` [-NH-CH(CH3)2] is 0.28 µmol/kg.
The figure for `C#CCNC1=NS(=O)(=O)N=C(NCCSCc2csc(N=C(N)N)n2)N1C` [-NHCH2C≡CH] is 0.12 µmol/kg.
Consider `CN1C(NC#N)=NS(=O)(=O)N=C1NCCSCc1csc(N=C(N)N)n1` [-NHCN], for which the ED50 worked out at 0.34 µmol/kg.
Take `CN/C(=N/CCSCc1nc[nH]c1C)NC#N` [Cimetidine, reference compound]: the ED50 was 10.8 µmol/kg.
